According to patent US20250177458A1, “USES OF BIFIDOBACTERIUM LONGUM MICROORGANISMS HAVING THE CAPACITY TO DEGRADE BOTH HMO AND PLANT-DERIVED GLYCANS” (SOCIETE DES PRODUITS NESTLE S.A., priority 2022, published 2025):

Tested on: transitional B. longum isolate NCC5004
Test: in vitro tube fermentation of fecal sample supplemented with isolate NCC5004, isolate-specific qPCR
Format: cell-based, Bifidobacterium longum
Conditions: HMO 5 g/L as single carbon source, toddler fecal community, after 24 hr and 48 hrs
Method: All bacterial strains retrieved from the Nestlé Culture Collection (NCC) were reactivated from a freeze-dried stock using two successive culturing steps (16 h, 37° C., anaerobiosis) in MRS (De Man, Rogosa and Sharpe) media supplemented with 0.05% cysteine (MRSc). Reactivated cultures were then centrifuged, washed, and resuspended in 1 volume of PBS.
For in vitro tube fermentation experiments, pulverized or homogenized stool samples were mixed 10-fold by adding PBS/glycerol (1/10) (w/v) before centrifugation at 600×g for 2 minutes. The slurry and pellet were then stored at −80° C. Frozen slurry of a fecal sample was thawed from storage and then use for the in vitro tube fermentation assays. The fecal slurry was inoculated with media based on that disclosed in Gibson et al. (Applied and Environmental Microbiology; 1988; 54(11); 2750-2755) with some modifications, specifically the exclusion of any carbon source. […]
The in vitro tube fermentation assays (n=3 per testing group) were set up at 37° C. with gentle stirring in an anaerobic environment (gas flow of pure N2 and a mix of N2, H2, and CO2 to ensure anaerobic conditions). Aliquots (0.5 mL) from fermentation tubes were taken and DNA was extracted, purified and analyzed at the time points indicated (0 hr, 24 hr and 48 hr). […]

Substance	growth of NCC5004 (qPCR absolute abundance) compared to baseline (0 hrs)
2′ fucosyllactose [2′FL]	significant growth
3-fucosyllactose [3 FL]	significant growth
